According to publication PMC12582016, “Cupin‐Type Dimethylsulfoniopropionate Lyase from Pelagibacter ubique (DddK Pu ) Catalyzes Aza‐Michael Addition of Primary and Secondary Amines to Acrylic Acid” (Angewandte Chemie (International Ed. in English), 2025):

Assays:
[1] = target: T1, DddK Pu (dimethylsulfoniopropionate (DMSP) lyase from Pelagibacter ubique HTCC1062) (Candidatus Pelagibacter communis, UniProt Q4FNM4); assay: end-point assay of acrylate consumption (aza-Michael addition); type: biochemical; conditions: co-substrate sodium acrylate 100 mM; pyrrolidine 100 mM; 50 mM triethanolamine pH 8.0, 25 °C; promiscuous activity
T1 construct: gene SAR11_0394; His-tagged wild type, tag kept, recombinant in E. coli, purified; metals as isolated mainly Zn, Fe, Ni
T1 sequence (Q4FNM4 1-130): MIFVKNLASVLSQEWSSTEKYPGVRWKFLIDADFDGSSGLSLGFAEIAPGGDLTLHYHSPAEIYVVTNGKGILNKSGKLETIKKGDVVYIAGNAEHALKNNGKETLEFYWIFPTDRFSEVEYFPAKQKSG

[2] = target: T1, DddK Pu (dimethylsulfoniopropionate (DMSP) lyase from Pelagibacter ubique HTCC1062); assay: HPLC end-point assay of acrylate formation; type: biochemical; conditions: 50 mM triethanolamine pH 8.0, 25 °C; enzyme as isolated (mainly Zn, Fe, Ni)

| SMILES | end-point assay of acrylate consumption (aza-Michael addition) [1] | HPLC end-point assay of acrylate formation [2] |
| --- | --- | --- |
| C1CCNC1 [6c, pyrrolidine] | Pyrrolidine (6c) was by far the most active secondary amine |  |
| C[S+](C)CCC(=O)[O-] [compound 1, DMSP] |  | The specific activity of DddK Pu was determined by the endpoint method |
